Consider ten molecules from patent US4812590A, “Carbamates of 4-hydroxyanisole as prodrugs for chemotherapy of melanoma” (priority 1987, dated 1989).

SMILES strings stand for the structures. Where two headings read alike, the source gives them in different places.

Data set [1] in a line: Determination of carbamate half-lives: conversion of carbamate to 4-methoxyphenol in phosphate buffer, HPLC. It is filed as physicochemical. The procedure: […] The resulting solution was heated at 37° while 20 μL samples were removed at intervals and injected directly into the HPLC injection port.
Unreacted carbamate and 4-methoxyphenol concentrations were determined by HPLC analysis with a C-18 reverse phase column using a mobile phase of 87.5% pH 2.4 phosphoric acid and 12.5% acetonitrile. The UV detector was set at 220 nm. The half-life (t1/2) is the time required for 50% conversion of carbamate to 4-methoxyphenol. Compounds (1), (2) and (3) are the preferred prodrugs for the treatment of melanomas.

The test system of the next data set is DNA synthesis. As to conditions: cited from earlier work.
In data set [2] the test system is melanoma cells that contain tyrosinase. As to conditions: Riley 1985; cited from earlier work.
The subject of another data set is melanoma. As to conditions: cited from earlier work.
The conditions of data set [3]: after intra-arterial injection; cited from earlier work.
A further data set can be described thus: pKa. The format is physicochemical.
The nature of data set [4]: Partition coefficient, octanol/pH 7.4 buffer. It is filed as physicochemical.
Where [5] appears, read: pH 6.8, pH 6.8, 37° (Table I), read-out: t1/2.
[6] abbreviates: pH 7.4, pH 7.4 phosphate buffer, 37° (Table I), read-out: t1/2 (time required for 50% conversion of carbamate to 4-methoxyphenol).

As to `COc1ccc(OC(=O)N(C)CCN(C)C)cc1`, the values for the half-life in data set [1] (setting [5]) and in data set [1] (setting [6]) were 3.23 h and 0.9 h, respectively.

As for `CCNCCN(CC)C(=O)Oc1ccc(OC)cc1`, the half-life in data set [1] (setting [6]) is 2.38 h.

On to `COc1ccc(OC(=O)N(C)CCN)cc1`, for which the half-life in data set [1] (setting [6]) worked out at 7.7 h.

For the molecule `CNCCCN(C)C(=O)Oc1ccc(OC)cc1`, the half-life in data set [1] (setting [6]) came to 24.1 h.

For the molecule `COc1ccc(O)cc1` [4-Hydroxyanisole, 4-hydroxyanisole], the “effect on DNA synthesis” value with DNA synthesis is “inhibits DNA synthesis”. Also, in data set [2], the “oxidation by tyrosinase and toxicity to melanoma cells” value was “oxidized by tyrosinase to highly cytotoxic products and consequently is preferentially toxic to those melanoma cells that contain the enzyme”. Further, in the data set on melanoma (intra-arterial infusion), the “results of subsequent studies” value was “more promising results”. Also, the “results of early clinical trials” value with melanoma (intralesional injection or i.v. infusion) was “disappointing”. For the same molecule, the half-life in blood in data set [3] was 9 min.

Regarding `COc1ccc(OC(=O)NCCCN)cc1.Cl` [(5), N-[3-Aminopropyl]carbamic acid 4-methoxyphenyl ester hydrochloride], the half-life in data set [1] (setting [6]) was 12 h.

For the molecule `COc1ccc(OC(=O)NCCN)cc1` [(6)], the half-life in data set [1] (setting [6]) was 12.1 h.

For the molecule `CNCCNC(=O)Oc1ccc(OC)cc1` [(7)], in data set [1] (setting [6]), the half-life stood at 12.4 h.

`CNCCN(C)C(=O)Oc1ccc(OC)cc1` [Compound IV]: the pKa in “pKa” is listed as 8.88. For the same molecule, the half-life in data set [1] (pH 7.4, phosphate buffer, pH 7.4 (37°), read-out: half-life of release of 4-hydroxyanisole) worked out at 0.6 h. The molecule further gave a logD in data set [4] of -1.02.

As to `CNCCN(C)C(=O)Oc1ccc(OC)cc1` [drawing 8], the results for the half-life in data set [1] (setting [5]) and in data set [1] (setting [6]) were 2.33 h and 0.605 h, respectively.

In general, pKa refers to the pH at which an ionisable group is half protonated. What is called logD is the decadic logarithm of the distribution of all forms, ionised or not, between an organic phase and buffer at a given pH. A low value points to lower lipophilicity.
